From patent publication US20080301822A1, “Role of alpha1-adrenergic receptors” (The Cleveland Clinic Foundation, priority 2005, published 2008)

Experiments:
[1] = tested on: α1A-AR-EGFP positive hippocampal CA1 interneurons; assay: Cell-attached patch recordings of spontaneous action potentials in hippocampal slices; type: cell-based, mouse; settings: 6FNE 10 μM
Procedure: Slice Preparation and Cell Identification. Hippocampal brain slices were prepared from α1A-AR-EGFP mice in strict accordance with a protocol approved by the Institutional Animal Care and Use Committee at the University of North Dakota. Mice were deeply anesthetized with isoflurane, sacrificed by decapitation, and their brains rapidly removed and placed in an ice-cold saline solution containing (in mM): 130 NaCl, 24 NaHCO3, 5 KCl, 1.25 NaH2PO4, 0.5 CaCl2, 4 MgCl2 and 10 glucose (saturated with 95% O2-5% CO2). The brain was then sectioned at 250-350 μm thick intervals using a Microm HM 650V vibrating blade microtome (Richard-Allen Scientific, Kalamazoo, Mich.). Slices were incubated at 35° C. for 40 min and then allowed to recover for at least 30 min at room temperature (22±1° C.) before experimentation. Slices were transferred to a PC-H chamber with a coverslip bottom (SD Instruments, Grants Pass, Oreg.) mounted on the fixed stage of an upright microscope (Olympus BX51 WI, Tokyo, Japan) equipped with a filter set for fluorescence imaging of EGFP and IR-DIC optics. Interneurons were visualized using 470 nm and 900 nm light with a water immersion objective (Olympus LUMPlanF1 60×IR) and two CCD cameras (Olympus MagnaFire and Sony XC-75, Tokyo, Japan). Dedicated MagnaFire software and a Hamamatsu C-2400 camera controller (Hamamatsu City, Japan) were used to adjust image quality in GFP and IR-DIC channels, respectively. […]
Electrophysiological Recordings. […] Action potentials (APs) were recorded using an Axopatch 200B amplifier (Axon Instruments, Union City, Calif.) in voltage-clamp mode, filtered at 2 kHz, digitized at 10 kHz (Digidata 1322A; Axon Instruments), and recorded to disk using pClamp9.0 software (Axon Instruments). […] Data were analyzed offline using Origin (OriginLab Corp., Northampton, Mass.) and Mini analysis 6.0.1 (Synaptosoft Inc., Decatur, Ga.). Each detected event was inspected visually to exclude obvious false action potentials (AP) before analysis. […] Statistical significance (p<0.05) was determined using the paired Student's t test, and mean values are expressed ±SEM.

pyramidal cells = assay: Action potential generation in pyramidal cells (unpublished data); type: cell-based
α1-ARs = assay: Saturation ligand binding on neurosphere membranes; design: species or system mouse; settings: normal embryonic and neonatal neurospheres, FIG. 19A
Procedure: Ligand Binding. Membranes were prepared and ligand binding was performed as previously described (Rorabaugh et al., Cardiovas. Res., 65:436-445 (2005)). Saturation or competition binding used the nonselective i-AR antagonist, 2-[β-(4-hydroxyl-3-^125I-iodophenyl)ethylaminomethyl]-tetralone (^125I-HEAT) or ^125I-CYP as the radioligand, using either increasing concentration of the radiolabel or using a KD amount (100 pM) to label total α1-ARs and increasing concentrations of an non-labeled selective antagonist. Non-specific labeling was determined by adding 100 uM phentolamine (or α1-ARs) or 1 uM propranolol (for β-ARs). Bmax and KD were determined through the use of Graphpad Prism. Statistical analysis of the binding data used a one-way ANOVA followed by a Newman-Keul's post-test where p<0.05 was considered significant.

[2] = tested on: α1A-AR mediated increased Ngn2 expression in normal neonatal neurospheres; assay: Real time PCR of α1A-AR induced Ngn2 expression with signaling inhibitors; type: cell-based, mouse; settings: one day phenylephrine treated normal neonatal neurospheres; FIG. 27
Procedure: (§1) Real Time PCR. Neurospheres were grown in proliferation or differentiation medium for 1, 3, 7 and 10 days respectively. The neurospheres grown in the proliferation medium were treated with phenlyephrine for the above-mentioned time along with Rauwalscine (0.1 uM) and Propranolol (1 uM). Total RNA was isolated using the RNAesy kit (Quiagen) and 2 ug RNA was reverse transcribed using oligodT primers with Superscript II Reverse Transcriptase (Invitrogen). Quantitative real time PCR was performed in iCycler (Biorad) using iQ SYBR Green Supermix. (Bio-Rad) The cDNA was amplified with primers for various neural stem cell proliferation and differentiation genes like Notch-1, Nestin, Mash-1, NeuroD, Math-1, Mash-1, Ngn-1, Ngn-2, D1x-2, Sox-2 and Zic-1. Samples obtained from three independent experiments were used for analysis of relative gene expression using the 2(-Delta Delta C(T) Method (Livak, K J and Schmittgen, T D, Methods 25:402-408 (2001)) and were normalized to α-Tubulin gene expression as internal control.
Since Ngn2 mRNA expression, a major gene of neuronal differentiation, appears to be regulated by the α1A-ARs, the common a i-AR signals responsible for this gene regulation was determined. Real time PCR and inhibitors for PKC (GO6983), PI3K (LY294002), MEK (PD98059) and p38 (SB202190) were used on one day phenylephrine treated normal neonatal neurospheres. The α1A-AR mediated increased Ngn2 expression was blocked by PKC, PI3K and MEK (ERK) inhibition but not by the p38 inhibitor (FIG. 27).

[3] = tested on: normal mouse neurospheres; assay: Neurosphere differentiation with phenylephrine in proliferation media (+EGF/FGF), immunostaining for MAP2, GFAP, NG2; type: cell-based; settings: phenylephrine 10 uM, 3-10 days
Procedure: (§2) Neurosphere Isolation Periventricular tissue from 1-2 day old pups was removed into HEPES-buffered Eagles' medium. The tissue was diced and incubated with Mg/Ca-free HBSS containing EDTA, trypsin, and DNase. The tissue was washed, centrifuged, and the pellet was triturated in PBS to produce a single-cell suspension and was passed through a 70 um cell strainer. The cells were cultured in B27 media containing heparin, bFGF and EGF until neurosphere development. Neurospheres were dissociated and replated several passages. A single neurosphere was picked, mechanically dissociated, and cloned by dilution.
Differentiation Assay: […] supplement (stem cell technologies) for embryonic neurospheres or in B-27 medium with 2% serum (for neonatal neurospheres) after dissociating them with the chemical dissociation kit (Stem Cell Technologies). The cells were plated at the density of 2×10^5 cells in 12 well plates and treated with Phenylephrine (10 uM).

CAM α1A-AR neurospheres = assay: Neurosphere differentiation with phenylephrine, CAM α1A-AR neurospheres; type: cell-based, mouse; settings: day 10, FIG. 22B
Procedure: (§3) Differentiation Assay: The neurospheres were differentiated by withdrawing the growth factors either in the differentiation supplement (stem cell technologies) for embryonic neurospheres or in B-27 medium with 2% serum (for neonatal neurospheres) after dissociating them with the chemical dissociation kit (Stem Cell Technologies). The cells were plated at the density of 2×10^5 cells in 12 well plates and treated with Phenylephrine (10 uM).

[4] = tested on: α1A-KO neonatal neurospheres; assay: Neurosphere differentiation with phenylephrine, α1A-KO neurospheres; type: cell-based, mouse; settings: 10 days, FIG. 23B
Procedure: as §2, §3

[5] = tested on: normal embryonic mouse neurospheres; assay: Differentiation rates (number of live cells) in differentiation media (−EGF/FGF); type: cell-based; settings: FIG. 16
Procedure: Differentiation rates (number of live cells) were also measured in normal neurospheres using differentiation media (−EGF/FGF) with and without phenylephrine.
as §3

[6] = tested on: normal neonatal neurospheres; assay: Real time PCR of neurogenic genes after phenylephrine stimulation; type: cell-based, mouse; settings: FIG. 26
Procedure: as §1

## Cl.NCC(O)c1cc(O)c(O)cc1F (centres unmarked) [6FNE, 6-fluoronorepinephrine (6FNE) hydrochloride]
[1]; FIG. 6D, fully reversible with wash
  effect on AP frequency over control conditions: large increase in AP frequency
[1]; n=4, control range 0-0.7 Hz
  frequency of spontaneous action potential discharge, range: 1.8-6.5 Hz
[1]; n=4, mean ±SEM, control 0.3±0.1 Hz, 22±1° C.
  frequency of spontaneous action potential discharge, mean: 3.5±1.1 Hz
Pyramidal cells
  action potential generation in pyramidal cells: inhibits action potential generation

## O=C1c2ccccc2CCC1CNCCc1ccc(O)c([125I])c1 (stereo not drawn) [125I-HEAT, 2-[β-(4-hydroxyl-3-^125I-iodophenyl)ethylaminomethyl]-tetralone]
α1-ARs
  Kd: 0.176 nM

## COc1ccc2c(c1)c(C1=C(c3c[nH]c4ccccc34)C(=O)NC1=O)cn2CCCN(C)C [GO6983]
[2]
  block of α1A-AR mediated increased Ngn2 expression: blocked

## COc1cccc(-c2cc(=O)c3ccccc3o2)c1N [PD98059]
[2]
  block of α1A-AR mediated increased Ngn2 expression: blocked

## CNC[C@H](O)c1cccc(O)c1 [Phenylephrine]
[3]
  differentiation of normal neurospheres in proliferation medium (+EGF/FGF): caused the differentiation of the neurospheres
[3]; listed as Phe
  differentiation of normal neurospheres in proliferation medium (+EGF/FGF): induced differentiation into all three cell types
CAM α1A-AR neurospheres
  effect on CAM α1A-AR neurospheres (differentiation): very little effect
[4]
  effect on α1A-KO neurospheres (differentiation): increased formation of neurons
[5]; differentiation media (−EGF/FGF)
  differentiation of neurospheres (number of live cells): enhances differentiation of neurospheres
[6]
  increase of α1A-AR mRNA expression: two hundred-fold
  increase of α1B-AR mRNA expression: 10 fold
[6]; normal neonatal neurospheres
  mRNA expression of genes involved in neurogenesis and neuronal differentiation: induced increased mRNA expression

## Oc1ccc(-c2nc(-c3ccncc3)c(-c3ccc(F)cc3)[nH]2)cc1 [SB202190]
[2]
  block of α1A-AR mediated increased Ngn2 expression: not

## COc1cc2nc(N3CCN(C(=O)c4ccco4)CC3)nc(N)c2cc1OC [prazosin]
[5]; differentiation media (−EGF/FGF) + phenylephrine
  block of the phenylephrine enhancement of neurosphere differentiation: can be blocked
